Source: ChEMBL document CHEMBL4806968, “Hipk inhibitors and methods of use thereof” (2020)

Legend:
[1] = target: T1, Ephrin type-A receptor 8 (Homo sapiens) (UniProt P29322); assay: Inhibition of EPH-A8 (unknown origin) at 0.5 uM relative to control
T1 sequence (whole entry): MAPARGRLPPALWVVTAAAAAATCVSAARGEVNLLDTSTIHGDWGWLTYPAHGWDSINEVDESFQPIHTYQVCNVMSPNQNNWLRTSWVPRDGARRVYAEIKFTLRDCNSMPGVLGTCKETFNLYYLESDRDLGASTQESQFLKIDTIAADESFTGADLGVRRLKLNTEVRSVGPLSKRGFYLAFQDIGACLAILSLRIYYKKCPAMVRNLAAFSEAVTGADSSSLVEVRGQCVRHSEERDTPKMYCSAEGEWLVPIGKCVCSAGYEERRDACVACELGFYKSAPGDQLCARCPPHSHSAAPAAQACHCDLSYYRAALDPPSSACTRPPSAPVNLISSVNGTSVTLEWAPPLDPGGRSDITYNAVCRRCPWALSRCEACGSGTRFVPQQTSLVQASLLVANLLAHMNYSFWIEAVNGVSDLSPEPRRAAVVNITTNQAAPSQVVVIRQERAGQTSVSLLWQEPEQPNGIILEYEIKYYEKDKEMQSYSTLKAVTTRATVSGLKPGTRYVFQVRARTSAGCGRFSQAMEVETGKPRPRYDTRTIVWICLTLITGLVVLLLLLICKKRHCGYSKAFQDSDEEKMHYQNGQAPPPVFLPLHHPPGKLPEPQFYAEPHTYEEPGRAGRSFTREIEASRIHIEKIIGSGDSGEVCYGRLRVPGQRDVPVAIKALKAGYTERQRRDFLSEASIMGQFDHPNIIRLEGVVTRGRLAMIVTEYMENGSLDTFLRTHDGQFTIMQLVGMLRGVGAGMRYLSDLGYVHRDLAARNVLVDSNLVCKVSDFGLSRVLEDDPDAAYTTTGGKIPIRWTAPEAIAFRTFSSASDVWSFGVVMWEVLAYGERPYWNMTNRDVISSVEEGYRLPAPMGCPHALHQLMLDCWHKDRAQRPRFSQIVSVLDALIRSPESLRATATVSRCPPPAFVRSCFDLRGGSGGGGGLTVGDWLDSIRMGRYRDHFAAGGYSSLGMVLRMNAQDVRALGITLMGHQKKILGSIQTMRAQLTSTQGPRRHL

[2] = target: BDNF/NT-3 growth factors receptor (Homo sapiens) (UniProt Q16620); assay: Inhibition of TRKB (unknown origin) at 0.5 uM relative to control
Sequence of BDNF/NT-3 growth factors receptor (Homo sapiens) (Q16620 32-822 limits assumed): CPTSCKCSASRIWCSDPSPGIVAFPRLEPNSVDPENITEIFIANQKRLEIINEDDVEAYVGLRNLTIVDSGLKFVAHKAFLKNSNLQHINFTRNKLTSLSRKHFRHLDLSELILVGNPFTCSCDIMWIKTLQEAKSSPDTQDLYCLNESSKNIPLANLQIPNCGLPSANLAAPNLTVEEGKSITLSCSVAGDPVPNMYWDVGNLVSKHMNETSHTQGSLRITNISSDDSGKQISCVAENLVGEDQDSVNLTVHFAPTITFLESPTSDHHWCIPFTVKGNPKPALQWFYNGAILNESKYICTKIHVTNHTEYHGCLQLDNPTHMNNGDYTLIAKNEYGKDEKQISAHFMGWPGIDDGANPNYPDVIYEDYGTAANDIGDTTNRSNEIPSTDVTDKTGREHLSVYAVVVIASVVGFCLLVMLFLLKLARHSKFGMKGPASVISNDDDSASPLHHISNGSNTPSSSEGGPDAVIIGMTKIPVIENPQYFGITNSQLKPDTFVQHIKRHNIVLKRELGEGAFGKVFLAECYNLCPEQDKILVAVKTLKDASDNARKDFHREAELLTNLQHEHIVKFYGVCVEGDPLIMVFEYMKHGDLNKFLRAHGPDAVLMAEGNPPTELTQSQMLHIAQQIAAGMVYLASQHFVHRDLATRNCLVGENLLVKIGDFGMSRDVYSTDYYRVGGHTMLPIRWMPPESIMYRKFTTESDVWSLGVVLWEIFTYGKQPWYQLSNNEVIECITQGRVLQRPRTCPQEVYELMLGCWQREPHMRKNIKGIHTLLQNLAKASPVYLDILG

[3] = target: T2, Ephrin type-A receptor 6 (Homo sapiens) (UniProt Q9UF33); assay: Inhibition of EPHA6 (unknown origin) at 0.5 uM relative to control
T2 sequence (whole entry): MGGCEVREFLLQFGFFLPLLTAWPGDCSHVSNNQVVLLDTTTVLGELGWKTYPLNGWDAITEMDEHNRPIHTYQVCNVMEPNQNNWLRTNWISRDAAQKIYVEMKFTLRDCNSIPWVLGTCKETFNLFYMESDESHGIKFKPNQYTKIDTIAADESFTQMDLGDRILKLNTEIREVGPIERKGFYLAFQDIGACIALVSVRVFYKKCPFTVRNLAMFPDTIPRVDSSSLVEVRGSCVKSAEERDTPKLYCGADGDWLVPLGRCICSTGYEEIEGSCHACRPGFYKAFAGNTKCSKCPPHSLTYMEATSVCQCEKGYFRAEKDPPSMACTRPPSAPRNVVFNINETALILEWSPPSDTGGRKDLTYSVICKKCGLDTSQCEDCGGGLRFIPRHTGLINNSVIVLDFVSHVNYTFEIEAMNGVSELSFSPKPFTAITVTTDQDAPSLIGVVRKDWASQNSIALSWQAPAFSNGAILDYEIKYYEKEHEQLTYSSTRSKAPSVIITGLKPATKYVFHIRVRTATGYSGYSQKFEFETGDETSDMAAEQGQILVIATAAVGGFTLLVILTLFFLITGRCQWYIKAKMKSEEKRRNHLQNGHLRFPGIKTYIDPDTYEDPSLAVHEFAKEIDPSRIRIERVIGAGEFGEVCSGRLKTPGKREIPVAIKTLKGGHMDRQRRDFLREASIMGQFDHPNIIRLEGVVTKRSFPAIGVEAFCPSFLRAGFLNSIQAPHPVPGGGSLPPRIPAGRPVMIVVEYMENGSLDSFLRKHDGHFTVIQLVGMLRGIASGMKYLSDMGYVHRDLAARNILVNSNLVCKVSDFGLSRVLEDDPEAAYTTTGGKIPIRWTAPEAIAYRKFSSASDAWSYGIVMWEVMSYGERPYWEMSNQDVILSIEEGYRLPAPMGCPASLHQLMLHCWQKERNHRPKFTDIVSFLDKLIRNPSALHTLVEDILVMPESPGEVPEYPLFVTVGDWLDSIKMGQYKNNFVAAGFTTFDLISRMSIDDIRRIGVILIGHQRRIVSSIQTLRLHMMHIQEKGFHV

[4] = target: Receptor-type tyrosine-protein kinase FLT3 (Homo sapiens) (UniProt P36888); assay: Inhibition of FLT3 (unknown origin) at 0.5 uM relative to control
Sequence of Receptor-type tyrosine-protein kinase FLT3 (Homo sapiens) (P36888 whole entry): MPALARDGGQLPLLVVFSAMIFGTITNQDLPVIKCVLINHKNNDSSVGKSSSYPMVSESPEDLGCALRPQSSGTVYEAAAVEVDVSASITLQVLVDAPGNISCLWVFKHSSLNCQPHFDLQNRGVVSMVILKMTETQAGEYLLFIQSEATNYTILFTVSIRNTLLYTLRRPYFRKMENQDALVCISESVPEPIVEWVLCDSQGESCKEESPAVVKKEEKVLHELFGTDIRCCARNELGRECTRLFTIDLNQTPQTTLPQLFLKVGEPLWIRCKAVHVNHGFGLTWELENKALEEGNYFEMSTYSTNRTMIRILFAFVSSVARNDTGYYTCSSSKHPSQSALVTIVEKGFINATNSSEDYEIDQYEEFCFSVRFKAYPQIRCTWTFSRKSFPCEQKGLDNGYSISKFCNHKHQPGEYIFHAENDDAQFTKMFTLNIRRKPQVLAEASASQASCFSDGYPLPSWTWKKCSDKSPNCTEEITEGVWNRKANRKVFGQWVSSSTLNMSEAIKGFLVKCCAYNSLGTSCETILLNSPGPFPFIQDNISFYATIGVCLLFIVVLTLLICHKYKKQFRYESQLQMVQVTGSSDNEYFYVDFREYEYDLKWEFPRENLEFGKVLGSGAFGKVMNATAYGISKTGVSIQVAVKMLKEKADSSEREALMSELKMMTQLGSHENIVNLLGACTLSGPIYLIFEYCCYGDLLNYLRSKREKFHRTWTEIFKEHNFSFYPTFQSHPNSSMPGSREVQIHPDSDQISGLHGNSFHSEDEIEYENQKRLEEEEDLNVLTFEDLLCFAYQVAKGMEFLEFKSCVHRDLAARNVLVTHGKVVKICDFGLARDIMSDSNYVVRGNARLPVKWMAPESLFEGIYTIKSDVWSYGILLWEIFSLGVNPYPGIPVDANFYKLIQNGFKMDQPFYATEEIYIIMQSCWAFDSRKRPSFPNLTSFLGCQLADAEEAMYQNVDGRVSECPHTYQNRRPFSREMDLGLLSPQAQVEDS

[5] = target: Mast/stem cell growth factor receptor Kit (Homo sapiens) (UniProt P10721); assay: Inhibition of KIT (unknown origin) at 0.5 uM relative to control
Sequence of Mast/stem cell growth factor receptor Kit (Homo sapiens) (P10721 whole entry): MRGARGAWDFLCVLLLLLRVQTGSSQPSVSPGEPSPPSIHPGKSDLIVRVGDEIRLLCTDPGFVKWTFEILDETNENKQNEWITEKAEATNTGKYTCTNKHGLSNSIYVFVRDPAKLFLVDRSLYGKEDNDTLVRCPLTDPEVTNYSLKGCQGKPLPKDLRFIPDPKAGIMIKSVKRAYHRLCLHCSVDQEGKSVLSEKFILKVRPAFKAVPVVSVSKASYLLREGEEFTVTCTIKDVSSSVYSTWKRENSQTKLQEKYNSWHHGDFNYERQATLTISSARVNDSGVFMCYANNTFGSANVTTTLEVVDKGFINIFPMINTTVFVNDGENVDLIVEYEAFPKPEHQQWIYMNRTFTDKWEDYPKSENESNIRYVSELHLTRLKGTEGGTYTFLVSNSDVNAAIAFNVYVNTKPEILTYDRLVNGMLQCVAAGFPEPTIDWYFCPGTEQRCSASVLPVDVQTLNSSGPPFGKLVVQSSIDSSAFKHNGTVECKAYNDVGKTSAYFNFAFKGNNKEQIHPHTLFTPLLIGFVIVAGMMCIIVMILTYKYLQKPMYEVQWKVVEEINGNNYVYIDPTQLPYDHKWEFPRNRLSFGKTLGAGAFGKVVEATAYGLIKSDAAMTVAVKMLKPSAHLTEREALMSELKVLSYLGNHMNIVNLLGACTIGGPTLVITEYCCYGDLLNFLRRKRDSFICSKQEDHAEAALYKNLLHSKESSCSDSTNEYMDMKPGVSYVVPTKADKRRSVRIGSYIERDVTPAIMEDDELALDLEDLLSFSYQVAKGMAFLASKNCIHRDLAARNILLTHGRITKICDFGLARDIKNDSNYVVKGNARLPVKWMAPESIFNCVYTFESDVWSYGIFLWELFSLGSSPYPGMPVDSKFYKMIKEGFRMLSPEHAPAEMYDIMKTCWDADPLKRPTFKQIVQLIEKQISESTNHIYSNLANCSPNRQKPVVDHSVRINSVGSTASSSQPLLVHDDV

Compound	inhibition [1] [%]	inhibition [2] [%]	inhibition [3] [%]	inhibition [4] [%]	inhibition [5] [%]
CNC(=O)c1cc(Oc2ccc(NC(=O)c3nc(SC)oc3-c3ccc(F)cc3)cc2F)ccn1	42	36	69	36	–
CNC(=O)c1cc(Oc2ccc(NC(=O)c3n[nH]nc3-c3ccc(F)cc3)cc2)ccn1	–	40	27	44	65
CSc1nc(C(=O)Nc2ccc(Oc3cc4cnn(C)c4cc3Br)cc2)c(-c2ccc(F)cc2)o1	25	–	19	27	–
CNC(=O)c1cc(Oc2ccc(NC(=O)c3nc(SC)[nH]c3-c3ccc(F)cc3)cc2)ccn1	96	83	–	–	–
CNC(=O)c1cc(Oc2ccc(NC(=O)c3nc(SC)n(CCN(C)C)c3-c3ccc(F)cc3)cc2)ccn1	57	51	58	50	27
CNC(=O)c1cc(Oc2ccc(NC(=O)c3nc(SC)oc3-c3ccc(F)cc3)cc2)ccn1	–	40	69	–	40
CNC(=O)c1cc(Oc2ccc(NC(=O)c3nc(C(F)(F)F)sc3-c3ccc(F)cc3)cc2)ccn1	50	–	67	39	33
CNC(=O)c1cc(Oc2ccc(NC(=O)c3nc(S(C)(=O)=O)sc3-c3ccc(F)cc3)cc2)ccn1	–	–	–	56	25
CNC(=O)c1cc(Oc2ccc(NC(=O)c3nc(NC)sc3-c3ccc(F)cc3)cc2)ccn1	58	71	62	–	47
